In PubChem BioAssay (NCI):
Values joined by “and” are separate entries in the source; they are usually repeats but may differ in a detail not shown here. Equal entries are not always repeated.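 Where inhibition never reached the appropriate level, the endpoint shown equals the highest concentration tested. Otherwise, values were interpolated linearly from a five-concentration, 48-hour dose response in 96-well plates. GI50 is the concentration that inhibits growth by half. The concentration for full growth arrest is given as TGI.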

Legend:
Assay in all cases: NCI anticancer screen, dose series, 48 h
LOX IMVI melanoma = system: LOX IMVI melanoma
MDA-MB-435 = system: MDA-MB-435
CAKI-1 renal = system: CAKI-1 renal
COLO 205 colon = system: COLO 205 colon
M14 melanoma = system: M14 melanoma
UO-31 renal = system: UO-31 renal
DU-145 prostate = system: DU-145 prostate
UACC-62 melanoma = system: UACC-62 melanoma
U251 CNS = system: U251 CNS
HS 578T breast = system: HS 578T breast

Structure (SMILES)	GI50 (LOX IMVI melanoma)	TGI (LOX IMVI melanoma)	GI50 (MDA-MB-435)	TGI (MDA-MB-435)	GI50 (CAKI-1 renal)	TGI (CAKI-1 renal)	GI50 (COLO 205 colon)	TGI (COLO 205 colon)	GI50 (M14 melanoma)	TGI (M14 melanoma)	GI50 (UO-31 renal)	TGI (UO-31 renal)	GI50 (DU-145 prostate)	TGI (DU-145 prostate)	GI50 (UACC-62 melanoma)	TGI (UACC-62 melanoma)	GI50 (U251 CNS)	TGI (U251 CNS)	GI50 (HS 578T breast)	TGI (HS 578T breast)
Cc1ccc2[nH]c3c(c2c1)N=c1ccccc1=NO3	97.8 µM	> 100 µM	> 100 µM	> 100 µM	10.5 µM	47.6 µM	31.9 µM	> 100 µM	48 µM	> 100 µM	42.2 µM	> 100 µM	34.6 µM	> 100 µM	36.5 µM	> 100 µM	53.7 µM	> 100 µM	–	–
COc1ccc(OC)c(NC(=O)c2cccc(NC3=C(Cl)C(=O)N(Cc4ccccc4)C3=O)c2)c1	> 100 µM	> 100 µM	> 64.7 µM	> 100 µM	> 100 µM	> 100 µM	> 100 µM	> 100 µM	> 75 µM	> 100 µM	> 90.3 µM	> 100 µM	27.8 µM	> 100 µM	> 63.1 µM	> 100 µM	> 100 µM	> 100 µM	> 100 µM	> 100 µM
CCCCCCCN(CCCCCCC)C(=N)c1ccnc2ccccc12	1.42 µM	2.82 µM	1.58 µM	3.24 µM	1.32 µM	2.68 µM	1.58 µM	3.51 µM	1.33 µM	2.76 µM	1.09 µM	2.41 µM	1.6 µM	3.04 µM	1.52 µM	3.05 µM	1.66 µM	3.11 µM	1.64 µM	4.36 µM
c1cc(CN2CCCNCCNCCCNCC2)ccc1CN1CCCNCCNCCCNCC1	> 100 µM	> 100 µM	> 100 µM	> 100 µM	> 100 µM	> 100 µM	> 100 µM	> 100 µM	> 100 µM	> 100 µM	> 100 µM	> 100 µM	> 100 µM	> 100 µM	> 100 µM	> 100 µM	> 100 µM	> 100 µM	> 100 µM	> 100 µM
COc1cc(OC)cc(-c2nc3sccn3c2/C=N/N=C(N)N)c1	6.49 µM	12.8 µM	8.71 µM	16.1 µM	8.03 µM	15.2 µM	3.11 µM	15.8 µM	6.96 µM	13.4 µM	15.8 µM	> 50 µM	–	–	8.03 µM	14.8 µM	5.2 µM	11.1 µM	12.6 µM	25.3 µM
C=C(C)[C@@H]1C/C=C(/CO)CC[C@H]2O[C@]2(C)CC/C=C(\C)CC1	15.4 µM	30.3 µM	13.5 µM	29.2 µM	17.1 µM	34.8 µM	13.2 µM	26.7 µM	15 µM	29.9 µM	13.6 µM	29.9 µM	18.1 µM	60.5 µM	15.1 µM	35.6 µM	19.9 µM	36.2 µM	18.2 µM	38.7 µM
O=C(O)CNc1ccc(Cl)c(Cl)c1	–	> 100 µM	–	79.2 µM	–	50.3 µM	–	41.7 µM	–	> 100 µM	–	71.1 µM	–	> 100 µM	–	90.4 µM	–	> 100 µM	–	> 100 µM
Nc1ncn(C2OC(COP(=O)(O)O)C(O)C2O)c(=O)n1 (centres undefined)	–	> 100 µM	–	> 73.6 µM	–	> 100 µM	–	> 100 µM	–	> 100 µM	–	> 100 µM	–	> 100 µM	–	> 100 µM	–	> 100 µM	–	> 100 µM
O=C(Nc1ccc2ncnc(Nc3ccc(Oc4cccc(F)c4)c(Cl)c3)c2c1)c1ccc(CN2CCOCC2)cc1	2.24 µM	5.33 µM	2.18 µM	5.39 µM	2.18 µM	10.5 µM	2.56 µM	8.34 µM	2.03 µM	4.68 µM	1.81 µM	8.59 µM	3.14 µM	15.8 µM	1.78 µM	3.43 µM	2.96 µM	17.7 µM	1.96 µM	7.04 µM
O=C1Nc2ccccc2/C1=C\c1cccc(/C=C2/C(=O)Nc3ccccc32)n1	0.19 µM	0.44 µM	0.355 µM	1.81 µM	0.338 µM	1.27 µM	0.356 µM	1.57 µM	0.484 µM	2.11 µM	0.779 µM	2.37 µM	0.881 µM	2.26 µM	0.32 µM	0.962 µM	0.16 µM	0.346 µM	0.294 µM	1.31 µM
COC12C=C/C(=C(/C(=O)OCCSc3ccnn3C)C(=O)CCCCCCCCC3(OC)C=C/C(=C(/C(=O)OCCSc4ccnn4C)C(=O)CCCCCCCC1)O3)O2	0.573 µM	1.18 µM	0.685 µM	1.57 µM	1.18 µM	> 32.5 µM	0.814 µM	2.15 µM	0.873 µM	2.4 µM	0.942 µM	11.1 µM	1.31 µM	> 32.5 µM	0.716 µM	1.85 µM	0.979 µM	3.32 µM	1.23 µM	> 32.5 µM
CN(C)C[C@H]1CCn2c(c(C3=C(c4cn(C)c5ccccc45)C(=O)NC3=O)c3ccccc32)C1	4.58 µM	8.56 µM	3.95 µM	7.9 µM	3.82 µM	8.74 µM	3.71 µM	7.5 µM	4.49 µM	8.47 µM	3.45 µM	7.31 µM	5.46 µM	10.8 µM	4.15 µM	7.98 µM	3.98 µM	8.2 µM	2.78 µM	10.1 µM
Cc1c(NC(=O)CCl)c(=O)oc2c(C)c3occc(=O)c3cc12	–	–	–	–	–	25.3 µM	–	40 µM	–	26 µM	–	22.4 µM	–	74.5 µM	–	–	–	27.5 µM	–	59.6 µM
CCCCCCCCCCCC[N+](C)(C)Cc1ccccc1	–	–	1.58 µM	3.72 µM	5.84 µM	24.8 µM	1.65 µM	3.34 µM	1.92 µM	4.32 µM	10 µM	25.9 µM	3.61 µM	13.6 µM	–	–	1.48 µM	3.51 µM	1.95 µM	5.96 µM
CCN(CC)CCCOc1ccc2ncnc(Nc3ccc(Oc4cccc(C(F)(F)F)c4)c(Cl)c3)c2c1	1.63 µM	3.06 µM	1.65 µM	3.22 µM	1.4 µM	3.1 µM	–	–	–	–	1.06 µM	2.26 µM	1.39 µM	2.74 µM	1.76 µM	3.22 µM	–	–	–	–
Cc1cn(CCC(N)C(=O)O)c(=O)[nH]c1=O (centres undefined)	–	> 100 µM	–	> 100 µM	–	–	–	> 100 µM	–	> 100 µM	–	> 100 µM	–	> 100 µM	–	> 100 µM	–	> 100 µM	–	> 100 µM

Structure (SMILES)	GI50 (LOX IMVI melanoma)	TGI (LOX IMVI melanoma)	GI50 (MDA-MB-435)	TGI (MDA-MB-435)	GI50 (CAKI-1 renal)	TGI (CAKI-1 renal)	GI50 (COLO 205 colon)	TGI (COLO 205 colon)	GI50 (M14 melanoma)	TGI (M14 melanoma)	GI50 (UO-31 renal)	TGI (UO-31 renal)	GI50 (DU-145 prostate)	TGI (DU-145 prostate)	GI50 (UACC-62 melanoma)	TGI (UACC-62 melanoma)	GI50 (U251 CNS)	TGI (U251 CNS)	GI50 (HS 578T breast)	TGI (HS 578T breast)
COc1cc(OC)c(/C=C/C(=O)c2ccc(Nc3ncnc4ccccc34)cc2)c(OC)c1	1.06 µM	6.52 µM	0.13 µM	0.522 µM	1.31 µM	15.2 µM	0.614 µM	2.22 µM	0.575 µM	2.5 µM	1.44 µM	3.99 µM	1.45 µM	3.42 µM	0.599 µM	2.18 µM	0.686 µM	2.73 µM	0.725 µM	5.66 µM
COc1ccc(C(C#N)=C2C=CC(=NO)C=C2)cc1	1.91 µM	4.5 µM	2.23 µM	5.8 µM	4.88 µM	15.1 µM	15.3 µM	30 µM	6.09 µM	19.6 µM	4.23 µM	14.6 µM	1.92 µM	4.42 µM	8.34 µM	21.9 µM	6.46 µM	19.4 µM	2.9 µM	20.3 µM
COC(NC(N)=O)C(=O)O (centres undefined)	–	–	–	> 100 µM	–	> 100 µM	–	> 100 µM	–	> 100 µM	–	> 100 µM	–	> 100 µM	–	> 100 µM	–	> 100 µM	–	> 100 µM
Cn1cnc([N+](=O)[O-])c1Sc1nnnn1C	–	26.6 µM	–	–	–	31.8 µM	–	25.3 µM	–	28.4 µM	–	32.6 µM	–	–	–	32 µM	–	34.1 µM	–	–
O=C(N/C(=C\c1c(O)ccc2ccccc12)c1nc2ccccc2[nH]1)c1ccccc1	–	> 100 µM	–	–	–	> 100 µM	–	> 100 µM	–	> 100 µM	–	> 100 µM	–	–	–	> 100 µM	–	> 100 µM	–	–
CC1(C)OC2CC3COC(=O)C3CC2O1 (centres undefined)	–	> 100 µM	–	–	–	> 100 µM	–	> 100 µM	–	> 100 µM	–	> 100 µM	–	–	–	> 100 µM	–	> 100 µM	–	–
COc1cc(-c2nn(-c3cccc(NC(=O)NCCNS(=O)(=O)c4ccc(Cl)cc4)c3)cc2-c2ccncc2)ccc1Cl	0.559 µM	2.46 µM	0.207 µM	0.515 µM	–	–	–	–	0.423 µM	2.42 µM	2.45 µM	> 100 µM	0.956 µM	> 100 µM	0.499 µM	2.39 µM	0.494 µM	2.09 µM	0.351 µM	5.14 µM
CCC[CH2][Sn]([CH2]CCC)([CH2]CCC)[O]C(=O)C(OC(C)=O)c1ccccc1 (centres undefined)	0.107 µM	0.23 µM	–	–	0.159 µM	0.3 µM	0.18 µM	0.321 µM	0.138 µM	0.267 µM	0.157 µM	0.292 µM	–	–	0.126 µM	0.255 µM	0.14 µM	0.27 µM	–	–
C=C1C(=O)O[C@H]2[C@H]1CC/C(COC(=O)c1cn(C)c3ccccc13)=C\CC[C@@]1(C)O[C@@H]21	0.228 µM	0.81 µM	1.34 µM	3.34 µM	–	–	1.24 µM	2.59 µM	1.41 µM	3.3 µM	0.775 µM	2.1 µM	1.01 µM	2.2 µM	1.26 µM	2.74 µM	1.42 µM	2.77 µM	2.39 µM	9.47 µM
CCN(CC)CCC(=O)OC1C(C)=CC(C)C(=O)CC(C(C)CC2CCC(O)C(OC)C2)OC(=O)C2CCCCN2C(=O)C(=O)[C@@]2(O)OC(CCC2C)CC(OC)\C(C)=C/C=C/C=C/C(C)CC(C)C(=O)C1OC (some centres undefined)	–	19.2 µM	–	21.2 µM	–	21.5 µM	–	24.6 µM	–	22.6 µM	–	–	–	19.7 µM	–	19.8 µM	–	23.1 µM	–	13.7 µM
c1ccc2cc(Cn3cc[n+](Cc4ccc5ccccc5c4)c3)ccc2c1	1.1 µM	2.39 µM	0.543 µM	2.29 µM	–	–	0.4 µM	1.67 µM	1.43 µM	8.34 µM	12.1 µM	28.8 µM	2.83 µM	14.7 µM	0.478 µM	1.98 µM	1.5 µM	11 µM	1.28 µM	8.97 µM
Nc1ncnc2c1sc(=S)n2-c1ccccc1	–	> 100 µM	–	–	–	> 100 µM	–	> 100 µM	–	> 100 µM	–	> 100 µM	–	–	–	> 100 µM	–	> 100 µM	–	–
O=C1NC(=O)C(=Cc2c3ccccc3cc3ccccc23)C(=O)N1	–	> 100 µM	–	–	–	> 100 µM	–	> 100 µM	–	> 100 µM	–	> 100 µM	–	–	–	> 100 µM	–	> 100 µM	–	–
CC(=O)O[C@@]12CO[C@@H]1C[C@H](O)[C@@]1(C)C(=O)[C@H](O)C3=C(C)[C@@H](OC(=O)[C@H](O)[C@@H](NC(=O)OC(C)(C)C)c4ccccc4)C[C@@](O)([C@@H](OC(=O)c4ccccc4)C12)C3(C)C (some centres undefined)	–	79 µM	–	–	0.225 µM and 0.181 µM	50 µM and 73.6 µM	–	0.0251 µM	–	–	0.372 µM and 0.192 µM	50 µM and 81.8 µM	< 0.005 µM	–	0.0922 µM	33.7 µM	< 0.005 µM	50 µM and > 100 µM	< 0.005 µM	23.5 µM and > 100 µM
CSC(=Nc1ccccc1Cl)NC(=O)c1ccc(Br)cc1	–	> 100 µM	–	–	–	97.4 µM	–	> 100 µM	–	> 100 µM	–	> 100 µM	–	–	–	> 100 µM	–	> 100 µM	–	–
